In patent US9493466B2, “Treatment of cancer with TOR kinase inhibitors” (Signal Pharmaceuticals, LLC, priority 2011, dated 2016):

Assays:
NCI-H441 tumors = experiment: NCI-H441 NSCLC in vivo tumor growth model; design: species or system SCID mice; details: 1 to 10 mg/kg oral BID, up to 26 days; FIG. 9
Description: NCI-H441 NSCLC In Vivo Tumor Growth Model. A xenograft study was conducted with NCI-H441 tumor-bearing mice. SCID mice were inoculated subcutaneously with NCI-H441 cells in the flank region above the right hind leg. Following inoculation of the animals, the tumors were allowed to grow to about 100 mm^3 prior to randomization. On Day 14 following tumor cell inoculation, the mice bearing NCI-H441 tumors ranging between 87 and 136 mm^3 were pooled together and randomized into various treatment groups. Compound 1 was formulated in 0.5% CMC and 0.25% Tween 80 in water (as a suspension). The animals were orally administered vehicle (CMC-Tween) or Compound 1 twice daily (BID) for up to 26 days. Doses of Compound 1 ranged between 1 and 10 mg/kg. The positive control rapamycin (4 mg/kg, Q3D) was administered via the intraperitoneal (IP) route. Rapamycin was prepared as solution in 2% ethanol, 45% polyethyleneglycol 400, and 53% saline. Tumors were measured twice a week using calipers and tumor volumes were calculated using the formula of W^2×L/2. Statistical analysis was performed using a one-way analysis of variance (ANOVA) followed by Dunnett's post-hoc comparison with the vehicle-treated control group.

[1] = system: NSCLC primary tumor grafts; experiment: Low passage tumorgraft models of NSCLC; assay type: in vivo, immunocompromised mice; details: 1, 5 and 10 mg/kg once daily for 28 days
Description: In Vivo Evaluation of Compound 1 in Low Passage Tumorgraft Models of Non-Small Cell Lung Cancer (NSCLC). The objective of the study was to evaluate the single agent efficacy of Compound 1 in non-small cell lung cancer (NCSLC) models. The antitumor activity of Compound 1 was evaluated in low passage non-small cell lung cancer (NSCLC) tumorgraft models. The tumorgrafts were developed by directly implanting the human tumor fragments into immunocompromised mice and then subsequently passaged in vivo. The tumors from these primary tumorgrafts have preserved biological and morphological characteristics of the original human tumors. The antitumor activity of Compound 1 was evaluated at three dose levels (1, 5 and 10 mg/kg) with once daily dosing for 28 days. During the course of the study antitumor activity was evaluated by measuring the tumors.

G144-Luc cells = experiment: G144 cancer stem cell derived intracranial glioblastoma model; assay type: in vivo, Nude mice; details: 10 mg/kg and 20 mg/kg QD oral, up to 6 weeks; FIG. 15
Description: G144 Cancer Stem Cell Derived Intracranial Glioblastoma Model (Compound 1). An intracranial glioblastoma study was conducted with G144 glioblastoma cells transfected with luciferase (G144-Luc). Nude mice were inoculated intracranially with G144-Luc cells into the brain. Following inoculation of animals, the tumors were allowed to grow for 5 weeks. At the end of 5 weeks following tumor cell inoculation, the mice were imaged using Xenogen imaging system. The mice having tumors with an average flux ranging between 3.71×10^6 and 3.87×10^7 photons/sec were pooled together and randomized into various treatment groups. Compound 1 was formulated in 0.5% CMC and 0.25% Tween 80 in water (as a suspension). The animals were orally administered vehicle (CMC-Tween) or Compound 1 once daily (QD) for up to 6 weeks. Doses of 10 mg/kg and 20 mg/kg Compound 1 were used. The positive control Temozolomide (TMZ) (10 mg/kg, QD) was administered via intra peritoneal (IP) route. Temozolomide was formulated in 5% N-methylpyrrolidone, 45% PEG400 and 50% saline. The animals were monitored for tumor growth by imaging for bioluminescence once a week using Xenogen imaging system. Statistical analysis was performed using a one-way analysis of variance (ANOVA) followed by Dunnett's post-hoc comparison with the vehicle-treated control groups.

[2] = system: Hep3B2.1-7 human liver tumor cells; experiment: Hepatocellular carcinoma (Hep3B2.1-7) orthotopic study; assay type: in vivo, mice; details: 10 mg/kg daily p.o., three weeks; FIGS. 17-18
Description: Hepatocellular Carcinoma (Hep3B2.1-7) Orthotopic Study. Hep3B2.1-7 human liver tumor cells were cultured in RPMI 1640 cell culture medium, supplemented with 10% FBS, 1% Glutamax and 1% penicillin-streptomycin. The cells were harvested by trypsinization, washed twice in HBSS and counted. The cells were then resuspended in HBSS:Matrigel™ (1:1, v/v) to a final concentration of 2×10^8 cells/mL. Prior to inoculation (while the animal was anesthetized via injectable Ketamil (10 mg/mL)/Xylazil (0.9 mg/mL) anesthetic), the skin on the incision site was swabbed with alcohol and an incision was made into the skin directly over the liver to expose the main lobe of the liver. The needle was introduced into the main lobe of the liver, where 2×10^6 Hep3B2.1-7 cells (in 10 μL with 50% Matrigel™) were discharged. Fourteen days post-inoculation, a satellite group of mice were culled to assess the presence of tumors in the liver.
Compound 1 powder was suspended in 0.5% CMC/0.25% Tween80 to achieve a stock concentration of 2 mg/mL. […]
The Vehicle Control and Test Articles were administered in a dosing volume of 5 mL/kg. Each animal's body weight was measured immediately prior to dosing. The volume of dosing solution administered to each animal was calculated and adjusted based on individual body weight. […]

CO[C@H]1CC[C@H](N2C(=O)CNc3ncc(-c4ccc(C(C)(C)O)nc4)nc32)CC1 [Compound 1, 7-(6-(2-hydroxypropan-2-yl)pyridin-3-yl)-1-((1r,4r)-4-methoxycyclohexyl)-3,4-dihydropyrazino-[2,3-b]pyrazin-2(1H)-one]
tumor growth (NCI-H441 tumors): significantly inhibited | growth of tumor grafts [1]: significantly inhibited | intracranial tumor growth (G144-Luc cells): significantly inhibited | tumor growth inhibition [2]: significant tumor growth inhibition
